# Laboratory results: patent publication US20250381179A1, “CHROMAN-BASED COMPOUNDS FOR TREATING CANCER” (priority 2024, published 2025)
# Where two headings read alike, the source gives them in different places.
# Legend:
# MCF7 cells = experiment: MCF7 cell growth inhibition (luminescence-based proliferation assay, CellTiter-Glo)
# Description: MCF7 cells were obtained from American Type Culture Collection (ATCC). For cell growth assay, MCF7 cells were seeded in 96-well plates at 2000 cells/well in 90 μL of DMEM medium containing 10% fetal bovine serum, and then incubated at 37° C. with 5% CO2 in air overnight. The following day, compound (1-g) and compound (1-h) were administered to the cells by using 1000× compound stock solution prepared in DMSO at concentrations of 3, 1, 0.33, 0.11, 0.037, 0.012, 0.0041, 0.0013, and 0.00046 mM. 1000x compound stock solution was first diluted in culturing medium to 10×, then 10 μL compound medium was added to each well in the cell plates. After administration of compound (1-g) and compound (1-h), the cells were then incubated at 37° C. for 6 days. Upon completion, the plates were equilibrated at room temperature for approximately 10 minutes. 100 μL of CellTiter-Glo® Reagent (Promega) was added to each well. The plates were then incubated at room temperature for 10 minutes and luminescence was recorded by EnSpire plate reader (PerkinElmer).
# [1] = Phase 1 study: plasma pharmacokinetics in patients; format: in vivo, human; settings: human, plasma, po; for AUC(0-t): read-out: AUC0-24 h of (1-h); for Tmax: read-out: Tmax* of (1-h); for Cmax: read-out: Cmax of (1-h)
# Description: All patients received compound (1-g) orally. The time of day for administration of compound (1-g) was consistent. Compound (1-g) was taken whole with liquid(s) and with food in the morning. The patient avoided taking other medications at the same time as compound (1-g). When possible, the patient took other medications in the evening or separated by a minimum of 4 hours following compound (1-g) dosing. On scheduled PK collection days (Cycle 1 Day 1, Cycle 1 Day 15, and Day 1 of Cycles 2, 3, 4, and 6) patients were instructed to wait until they arrive at the study center to take their study drug when told. If a patient missed a dose of compound (1-g), the patient was required to take the dose as soon as possible, but not less than 12 hours before the next dose is due. If vomiting occurred after taking the study treatment, the patient was instructed not to retake the dose and record the dose recorded as taken in the dosing diary, noting that the patient vomited and marking the time of vomiting. Patients were instructed to take the next scheduled dose of compound (1-g).
# The plasma PK parameters (including AUC(0-∞), AUC(0-τ), Cmax, tmax, and T1/2) of compound (1-g) following oral administration was assessed by analysis of blood samples. During treatment, PK blood samples were taken at approximately the following time points: • Cycle 1 Day 1, and Day 15: pre-dose; at 1, 2, and 4-hour post-dose (±5 min); 6 and 8-hour post-dose (±10 min); and 24 hours post-dose (+1 hour); • Cycle 2, 3, 4, and 6 Day 1: pre-dose only.
# Plasma concentrations of compound (1-g) were used to calculate the PK parameters. These parameters were listed by individual patient and summarized by descriptive statistics (means, medians, ranges, standard deviations, and coefficients of variation as appropriate) by cohort.
# Compound (1-g) was administered orally to patients once a day at 100, 200, 300 mg, 400 mg, and 600 mg doses.
# [2] = 100 mg, patient plasma after oral (1-g) 100 mg QD, C1D15, n = 2, mean
# [3] = 200 mg, patient plasma after oral (1-g) 200 mg QD, C1D1, n = 12, mean
# [4] = 200 mg, patient plasma after oral (1-g) 200 mg QD, C1D15, n = 12, mean
# [5] = 300 mg, patient plasma after oral (1-g) 300 mg QD, C1D1, n = 10, mean
# [6] = 300 mg, patient plasma after oral (1-g) 300 mg QD, C1D15, n = 10, mean
# [7] = 400 mg, patient plasma after oral (1-g) 400 mg QD, C1D1, n = 6, mean
# [8] = 400 mg, patient plasma after oral (1-g) 400 mg QD, C1D15, n = 5, mean
# [9] = 600 mg, patient plasma after oral (1-g) 600 mg QD, C1D1, n = 4, mean
# [10] = 600 mg, patient plasma after oral (1-g) 600 mg QD, C1D15, n = 4, mean
smiles,measurement,setting,value
"O=C1CC[C@@H](N2Cc3cc(N4CCN(CC5CCN(c6ccc([C@@H]7c8ccc(O)cc8OC[C@@H]7c7ccccc7)cc6F)CC5)CC4)ccc3C2=O)C(=O)N1 [compound (1-h), (R)-3-(5-(4-((1-(2-fluoro-4-((3S,4R)-7-hydroxy-3-phenylchroman-4-yl)phenyl)piperidin-4-yl)methyl)piperazin-1-yl)-1-oxoisoindolin-2-yl)piperidine-2,6-dione]",GI50,"MCF7 cells; Homo sapiens, 144 h, MCF7 cells, 6 days, CellTiter-Glo",9 nM
same,reduced the tumor growth by (FIG. 3A/3B),MCF7 cells; MCF7 cell proliferation assay,about 62%
same,AUC(0-t),"[1]; 100 mg, patient plasma after oral (1-g) 100 mg QD, C1D1, n = 1, mean",332 ng·h/mL
same,Tmax,"[1]; 100 mg, patient plasma after oral (1-g) 100 mg QD, C1D15, n = 2, *median value",12 h
same,AUC(0-t),[1]; [2],7080 ng·h/mL
same,Cmax,[1]; [2],326 ng/mL
same,AUC(0-t),[1]; [3],1030 ng·h/mL
same,Cmax,[1]; [3],68.8 ng/mL
same,Tmax,"[1]; 200 mg, patient plasma after oral (1-g) 200 mg QD, C1D15, n = 12, *median value",7.17 h
same,AUC(0-t),[1]; [4],9540 ng·h/mL
same,Cmax,[1]; [4],428 ng/mL
same,AUC(0-t),[1]; [5],1610 ng·h/mL
same,Cmax,[1]; [5],112 ng/mL
same,Tmax,"[1]; 300 mg, patient plasma after oral (1-g) 300 mg QD, C1D15, n = 10, *median value",5.8 h
same,AUC(0-t),[1]; [6],15400 ng·h/mL
same,Cmax,[1]; [6],680 ng/mL
same,AUC(0-t),[1]; [7],1740 ng·h/mL
same,Cmax,[1]; [7],118 ng/mL
same,Tmax,"[1]; 400 mg, patient plasma after oral (1-g) 400 mg QD, C1D15, n = 5, *median value",4.8 h
same,AUC(0-t),[1]; [8],17900 ng·h/mL
same,Cmax,[1]; [8],820 ng/mL
same,AUC(0-t),[1]; [9],2470 ng·h/mL
same,Cmax,[1]; [9],170 ng/mL
same,Tmax,"[1]; 600 mg, patient plasma after oral (1-g) 600 mg QD, C1D15, n = 4, *median value",10 h
same,AUC(0-t),[1]; [10],18700 ng·h/mL
same,Cmax,[1]; [10],828 ng/mL
